Results as given in US8273762B2, “Hexahydro-pyrrolo-isoquinoline compounds” (Janssen Pharmaceutica NV, priority 2005, dated 2012).

Experiments:
[1] = target: T1, cloned human H3 receptor, stably expressed in SK-N-MC cells (Homo sapiens, UniProt Q9Y5N1); assay: H3 receptor binding (N-[3H]-α-methylhistamine displacement); settings: SK-N-MC membranes, 0.8 nM N-[3H]-α-methylhistamine
T1 construct: expressed in transfected cells

[2] = target: T2, human SERT (HEK293 membranes) (Homo sapiens, UniProt P31645); assay: Human SERT binding (3H-citalopram displacement)
T2 construct: purchased Perkin-Elmer; host or cells: HEK293 membranes
T2 sequence (P31645 whole entry): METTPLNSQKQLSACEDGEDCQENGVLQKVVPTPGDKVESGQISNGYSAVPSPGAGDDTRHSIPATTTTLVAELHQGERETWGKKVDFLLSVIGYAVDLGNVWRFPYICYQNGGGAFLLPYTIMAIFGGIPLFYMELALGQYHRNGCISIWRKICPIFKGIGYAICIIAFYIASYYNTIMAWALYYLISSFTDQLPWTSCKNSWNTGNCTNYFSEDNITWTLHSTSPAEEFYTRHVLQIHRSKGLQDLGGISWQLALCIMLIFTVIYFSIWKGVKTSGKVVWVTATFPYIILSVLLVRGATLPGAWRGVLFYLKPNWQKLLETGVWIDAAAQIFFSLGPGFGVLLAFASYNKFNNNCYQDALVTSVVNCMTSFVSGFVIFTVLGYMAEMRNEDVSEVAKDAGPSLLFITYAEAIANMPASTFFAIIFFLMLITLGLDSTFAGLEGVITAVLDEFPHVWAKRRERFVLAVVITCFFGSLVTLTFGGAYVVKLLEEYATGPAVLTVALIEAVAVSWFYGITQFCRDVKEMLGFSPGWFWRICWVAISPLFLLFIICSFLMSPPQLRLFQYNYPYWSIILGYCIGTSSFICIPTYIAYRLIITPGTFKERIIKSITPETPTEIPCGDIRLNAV
Method: Nonspecific binding was determined in the presence of 10 μM fluoxetine for the SERT. The membranes were washed and the radioactivity was counted as above.

[3] = target: T3, human H3 receptor (SK-N-MC cells) (Homo sapiens, UniProt Q9Y5N1); assay: Cyclic AMP accumulation (β-galactosidase reporter, Schild analysis vs histamine); type: cell-based; settings: read-out: H3 pA2 (converted)
T3 construct: expressed in transfected cells; host or cells: SK-N-MC sublines with CRE-beta-galactosidase reporter
T3 sequence (Q9Y5N1 whole entry): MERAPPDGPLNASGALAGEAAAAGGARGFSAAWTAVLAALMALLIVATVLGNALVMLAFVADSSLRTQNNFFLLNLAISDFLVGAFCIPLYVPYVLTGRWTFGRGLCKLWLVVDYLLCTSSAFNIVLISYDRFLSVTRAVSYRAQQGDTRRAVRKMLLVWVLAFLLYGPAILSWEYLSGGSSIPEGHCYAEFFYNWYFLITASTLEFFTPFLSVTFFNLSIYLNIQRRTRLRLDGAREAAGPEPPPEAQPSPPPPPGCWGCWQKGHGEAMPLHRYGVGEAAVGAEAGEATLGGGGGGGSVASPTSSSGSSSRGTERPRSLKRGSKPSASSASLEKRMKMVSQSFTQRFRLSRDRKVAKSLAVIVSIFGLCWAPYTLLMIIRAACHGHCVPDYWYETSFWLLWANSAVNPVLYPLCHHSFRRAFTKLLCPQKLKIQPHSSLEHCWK
Method: The reporter gene (β-galactosidase) is under the control of multiple cyclic AMP responsive elements. In 96-well plates, histamine was added directly to the cell media followed 5 min later by an addition of forskolin (5 μM final concentration). When appropriate, antagonists were added 10 min prior to agonist addition. After a 6-h incubation at 37° C., the media was aspirated and the cells washed with 200 μL of phosphate-buffered saline followed by a second aspiration. Cells were lysed with 25 μL 0.1× assay buffer (10 mM Na-phosphate, pH 8, 0.2 mM MgSO4, 0.01 mM MnCl2) and incubated at rt for 10 min. Cells were then incubated for 10 min with 100 μL of 1× assay buffer containing 0.5% Triton and 40 mM β-mercaptoethanol. Color was developed using 25 μL of 1 mg/mL substrate solution (chlorophenolred β-D galactopyranoside; Roche Molecular Biochemicals, Indianapolis, Ind.).

T1 sequence (Q9Y5N1 whole entry): as above

Row | Structure (SMILES) | Ki [1] [nM] | Ki [2] [nM] | Kb [3] [nM]
1 | C#Cc1ccc([C@H]2CN3CCC[C@H]3c3cc(OCCCN4CCCCC4)ccc32)cc1 (relative stereo) [Example 37] | 4 | 0.8 | 1.58
2 | COc1cc([C@H]2CN3CCC[C@H]3c3cc(OCCCN4CCCCC4)ccc32)cc(OC)c1OC (relative stereo) [Example 22] | 0.8 | 220 | 0.631
3 | Cc1ccc([C@H]2CN3CCC[C@H]3c3cc(OCCCN4CCCCC4)ccc32)cc1 (relative stereo) [Example 5A, Cis-9-(3-Piperidine-1-yl-propoxy)-6-p-tolyl-1,2,3,5,6,10b-hexahydro-pyrrolo[2,1-a]isoquinoline] | 2 | 4 | 2.51
4 | Oc1cccc([C@H]2CN3CCC[C@H]3c3cc(OCCCN4CCCCC4)ccc32)c1 (relative stereo) [Example 15] | 0.7 | 3 | 0.126
5 | CSc1ccc([C@@H]2CN3CCC[C@H]3c3cc(C#CCCN4CCCCC4)ccc32)cc1 (relative stereo) [Example 98A, Cis-6-(4-methylsulfanyl-phenyl)-9-(4-piperidin-1-yl-but-1-ynyl)-1,2,3,5,6,10b-hexahydro-pyrrolo[2,1-a]isoquinoline] | 4 | 2 | 10
6 | COc1cc(OC)cc([C@H]2CN3CCC[C@H]3c3cc(OCCCN4CCCCC4)ccc32)c1 (relative stereo) [Example 21] | 1 | 5 | 0.794
7 | Oc1ccccc1[C@H]1CN2CCC[C@H]2c2cc(OCCCN3CCCCC3)ccc21 (relative stereo) [Example 16] | 4 | 112 | 1.26
8 | O=[N+]([O-])c1ccc([C@H]2CN3CCC[C@H]3c3cc(OCCCN4CCCCC4)ccc32)cc1 (relative stereo) [Example 2A, Cis-6-(4-Nitro-phenyl)-9-(3-piperidin-1-yl-propoxy)-1,2,3,5,6,10b-hexahydro-pyrrolo[2,1-a]isoquinoline] | 1 | 6 | 0.398
9 | Nc1ccc([C@H]2CN3CCC[C@H]3c3cc(OCCCN4CCCCC4)ccc32)cc1 (relative stereo) [Example 3] | 0.5 | 8 | 0.0794
10 | C#Cc1cccc([C@H]2CN3CCC[C@H]3c3cc(OCCCN4CCCCC4)ccc32)c1 (relative stereo) [Example 34] | 2 | 3 | 1
11 | Ic1ccc([C@@H]2CN3CCC[C@H]3c3cc(OCCCN4CCCCC4)ccc32)cc1 (relative stereo) [Example 35A, Cis-6-(4-Iodo-phenyl)-9-(3-piperidin-1-yl-propoxy)-1,2,3,5,6,10b-hexahydro-pyrrolo[2,1-a]isoquinoline] | 4 | 7 | 3.98
12 | Ic1cccc([C@H]2CN3CCC[C@H]3c3cc(OCCCN4CCCCC4)ccc32)c1 (relative stereo) [Example 32] | 1 | 11 | 0.316
13 | FC(F)(F)c1ccc([C@H]2CN3CCC[C@H]3c3cc(OCCCN4CCCCC4)ccc32)cc1 (relative stereo) [Example 7A, Cis-9-(3-Piperidin-1-yl-propoxy)-6-(4-trifluoromethyl-phenyl)-1,2,3,5,6,10b-hexahydro-pyrrolo[2,1-a]isoquinoline] | 5 | 12 | 6.31
14 | COc1ccc([C@@H]2CN3CCC[C@H]3c3cc(C#CCCN4CCCCC4)ccc32)cc1 (relative stereo) [Example 96A, Cis-6-(4-methoxy-phenyl)-9-(4-piperidin-1-yl-but-1-ynyl)-1,2,3,5,6,10b-hexahydro-pyrrolo[2,1-a]isoquinoline] | 1 | 9 | 6.31
